The text below walks through data of patent publication US20090252814A1, “USE OF XENON FOR ORGAN PROTECTION” (priority 2005, published 2009).

One data set deals with VEGF. As to the kind of experiment: VEGF expression in adult mice brains (western blot). It is filed as in vivo, C57BL/6J mice. To be noted: 75% xenon and 25% oxygen 2 h, harvested 0-48 h after. How it is done: Studies were performed on 8 to 12-wk-old C57BL/6J mice (Jackson Labs, Bar Harbor, Me.) that were fed a standard laboratory diet. All procedures were approved by the Home Office.
The mice were exposed to 75% xenon and 25% oxygen for two hours. The xenon gas was administered to the mice by inhalation. The brains of said adult mice were then harvested as described below between 0-48 hours after exposure to the xenon gas.
The tissues were homogenised and western blots of adult mice brain samples were carried out as described in Example 1.
The primary antibodies were anti-α-tubulin antibody, and monoclonal mouse anti-VEGF antibody.
For orientation: In western blotting, separated proteins are transferred to a membrane and probed.

The conditions of data set [1]: in combination with oxygen; cited from earlier work.
For data set [2], the system named is brain. As to the kind of experiment: Cortical infarction in neonatal rat brain, xenon and cooling. It is filed as in vivo, Sprague Dawley rats. Also noted: Total area of infraction: unit not given here. On the procedure: Sprague Dawley, 7 day neonatal rats were used. All procedures were approved by the Home Office.
The neonatal rats were exposed to: • (i) 20% xenon alone for 2 hours; • (ii) 35° C. hypothermia for 90 minutes; or • (iii) Hypothermia (35° C.) for 90 minutes before, 1 hour later, 20% xenon for 2 hours.
The gas was administered by gas inhalation.
The brains of said rats were then harvested at a set time after exposure to the xenon gas. A total of 11 rats were examined for each treatment group.
The brains were assessed for cortical infarction in the affected hemisphere.
The “intervention” rats under went an ischaemic injury to the brain.

The test system of a further data set is rabbit heart. The settings on record: xenon during early reperfusion, rabbit heart (Preckel et al 2000); cited from earlier work.
The next data set relates to main organs. To be noted: xenon exposure (Natale et al 1998); cited from earlier work.
The next data set deals with NMDA receptor. To be noted: 80% xenon, cultured hippocampal neurons; cited from earlier work.
Another data set deals with HIF-1α. As to the kind of experiment: HIF-1α expression in the kidney after exposure to xenon (western blot). To be noted: adult mice, 75% xenon 2 h by inhalation, kidneys harvested 0-24 h after. It is filed as in vivo, C57BL/6J mice. On the procedure: Studies were performed on adult 8- to 12-wk-old C57BL/6J mice (Jackson Labs, Bar Harbor, Me.) that were fed a standard laboratory diet. All procedures were approved by the Home Office.
The mice were exposed to 75% xenon for two hours. The xenon gas was administered to the mice by inhalation. The kidneys of said mice were then harvested as described below between 0-24 hours after exposure to the xenon gas.
Once sacrificed, the kidneys were harvested and frozen at −80° C. […] Protein concentration in the supernatant was determined by DC (detergent-compatible) protein assay (Bio-Rad, Herts, UK), based on the Lowry method. […]
After washing in TBS-T the membrane was incubated with the appropriate goat-derived horseradish peroxidase-conjugated secondary antibody at room temperature for 1½ hours to detect the primary antibodies. The immunoreactive bands were visualised with the enhanced chemiluminescence system and detected on X-ray film. The results were quantified by densitometry as an x-fold increase relative to the control without xenon—the amount of protein applied was normalised by the densitometry of the tubulin (which was unaltered by the intervention itself). […]

The test system of data set [3] is brain. To be noted: administered 4 hours after hypoxic-ischaemic injury, neonatal rats; cited from earlier work.

Consider `[Xe]` [xenon], for which the “expression of VEGF” value in the data set with VEGF is on record as “time-dependent increase”. Also, the “concentrations exhibiting anaesthetic effects” value in data set [1] is 10-70 vol. %. Moreover, the “Total area of infraction” value in the data set on brain [2] (Control rats, 20% xenon alone column) is recorded as 88.3 (±4.1); with brain [2] (Control rats, combination column), 92.7 (±6.7); in the data set with brain [2] (Intervention rats (ischaemic injury), 20% xenon alone for 2 hours) it was 85.3 (±8.9); in the data set with brain [2] (Intervention rats (ischaemic injury), combination: hypothermia 35° C. 90 min, 1 hour later 20% xenon 2 hours), 74.1 (±7.8). The “interaction of xenon and cooling on area of infraction” value in the data set on brain [2] (hypothermia followed by xenon, administered asynchronously) is “synergy”. The “infarct size after regional ischaemia” value in the data set on rabbit heart is “reduces infarct size”. For the same compound, the “toxic effects on main organs” value in the data set with main organs is “does not induce significant toxic effects”. Besides, the “reduction of NMDA-activated currents” value in the data set with NMDA receptor is on record as “up to 60%”. Also, the “HIF-1α expression in the kidneys” value in the data set with HIF-1α is “time-dependent increase”. In the data set with brain [3], the “neuroprotection by combination of xenon and hypothermia” value is “synergistic neuroprotection”.
